In patent US7649012B2, “Compounds, pharmaceutical compositions containing same, and methods of use for same” (FASgen, Inc., priority 2002, dated 2010):
Converted amounts (≈) assume the structure as drawn. Like-named read-outs stand apart in the source and are kept apart here.

Experiments:
Format in all cases: cell-based
[1] = test system: Escherichia coli (ATCC # 25922); test: Broth microdilution MIC; details: for MIC: Escherichia coli, ATCC25922
Description: (§1) A broth microdilution assay is used to assess the antimicrobial activity of the compounds. […] Microorganisms tested include Staphylococcus aureus (ATCC # 29213), Enterococcus faecalis (ATCC # 29212), Pseudomonas aeruginosa (ATCC # 27853), and Escherichia coli (ATCC # 25922). The assay is performed in two growth media, Mueller Hinton Broth and Trypticase Soy Broth. […] Colonies are suspended in sterile broth so that the turbidity matches the turbidity of a 0.5 McFarland standard. The inoculum is diluted 1:10 in sterile broth (Mueller Hinton or Trypticase soy) and 195 ul is dispensed per well of a 96-well plate. The compounds to be tested, dissolved in DMSO, are added to the wells in 5 ul volume at the following concentrations: 25, 12.5, 6.25, 3.125, 1.56 and 0.78 ug/ml in duplicate. Additional concentrations are tested if required. 5 ul of DMSO added to duplicate wells are the vehicle control. Serial dilutions of positive control compounds, vancomycin (E. faecalis and S. aureus) and tobramycin (E. coli and P. aeruginosa), are included in each run. After 24 hours of incubation at 37° C., plates are read at OD600 on a Molecular Devices SpectraMax Plus Spectrophotometer. Average OD600 values are computed using SOFTmax Pro Software (Molecular Devices) and MIC values are determined by linear regression analysis using Prism version 3.02 (Graph Pad Software, San Diego).

[2] = test system: Enterococcus faecalis (ATCC # 29212); test: Broth microdilution MIC; details: for MIC: Enterococcus faecalis, ATCC29212
Description: as §1

[3] = test system: Staphylococcus aureus (ATCC # 29213); test: Broth microdilution MIC; details: for MIC: Staphylococcus aureus, ATCC29213
Description: as §1

[4] = test system: Pseudomonas aeruginosa (ATCC # 27853); test: Broth microdilution MIC; details: for PSAE/MH(MIC): Mueller Hinton Broth; for PSAE/Tsoy(MIC): Trypticase Soy Broth
Description: as §1

[5] = test system: MCF-7 human breast cancer cells; test: [14C]acetate incorporation into total lipids; details: Homo sapiens, MCF7, [14C]acetate incorporation into lipids
Description: This assay measures the incorporation of [^14C]acetate into total lipids and is a measure of fatty acid synthesis pathway activity in vitro. It is utilized to measure inhibition of fatty acid synthesis in vitro.
MCF-7 human breast cancer cells cultured as above, are plated at 5×10^4 cells per well in 24-well plates. […] DMSO is added to triplicate wells for a vehicle control. C75 is run at 5 and 10 μg/ml in triplicate as positive controls. After 4 hours of incubation, 0.25 μCi of [^14C]acetate (10 μl volume) is added to each well.
After 2 hours of additional incubation, medium is aspirated from the wells and 800 μl of chloroform:methanol (2:1) and 700 μl of 4 mM MgCl2 is added to each well. Contents of each well are transferred to 1.5 Eppendorf tubes, and spun at full-speed for 2 minutes in a high-speed Eppendorf Microcentrifuge 5415D. After removal of the aqueous (upper) layer, an additional 700 μl of chloroform:methanol (2:1) and 500 μl of 4 mM MgCl2 are added to each tube and then centrifuged for 1 minutes as above. The aqueous layer is removed with a Pasteur pipette and discarded. An additional 400 μl of chloroform:methanol (2:1) and 200 μl of 4 mM MgCl2 are added to each tube, then centrifuged and aqueous layer is discarded. The lower (organic) phase is transferred into a scintillation vial and dried at 40° C. under N2 gas. Once dried, 3 ml of scintillant (APB #NBC5104) is added and vials are counted for ^14C. The Beckman Scintillation counter calculates the average cpm values for triplicates.
The IC50 for the compounds is defined as the concentration of drug leading to a 50% reduction in [^14C]acetate incorporation into lipids compared to controls. […] The average cpm values are computed by the Beckman scintillation counter (Model LS6500) for each compound concentration. Computation of linear regression, best-fit line, r^2, and 95% confidence intervals are calculated using Prism Version 3.0 (Graph Pad Software).

[6] = Mueller Hinton Broth, read-out: SA/MH(MIC)
[7] = Trypticase Soy Broth, read-out: SA/Tsoy(MIC)
[8] = Mueller Hinton Broth, read-out: Ecoli/MH(MIC)
[9] = Mueller Hinton Broth, read-out: EF/MH(MIC)
[10] = Trypticase Soy Broth, read-out: Ecoli/Tsoy(MIC)
[11] = Trypticase Soy Broth, read-out: EF/Tsoy(MIC)

Compound | Ecoli/Tsoy(MIC) ([1]; Trypticase Soy Broth) | EF/MH(MIC) ([2]; Mueller Hinton Broth) | EF/Tsoy(MIC) ([2]; Trypticase Soy Broth) | MIC [3, 6] [µg/mL] | MIC [3, 7] [µg/mL] | PSAE/MH(MIC) [4] | PSAE/Tsoy(MIC) [4] | IC50 [5] [µg/mL] | MIC [1, 8] [µg/mL] | MIC [2, 9] [µg/mL] | Ecoli/MH(MIC) ([1]; Mueller Hinton Broth) | MIC [1, 10] [µg/mL] | MIC [2, 11] [µg/mL] | SA/MH(MIC) ([3]; Mueller Hinton Broth)
CCCC/C=C/C=C/C1(C)SC(=O)C=C1O (stereo not drawn) | – | – | – | – | 55 (≈ 231 µM) | Neg | Neg | 25.7 (≈ 108 µM) | – | 78 (≈ 327 µM) | Neg | 263 (≈ 1100 µM) | 42 (≈ 176 µM) | Neg
CCCCCCC1(C)SC(=O)C=C1O (stereo not drawn) | Neg | – | – | 48 (≈ 224 µM) | 31 (≈ 145 µM) | Neg | Neg | 16.5 ± 3.8 (≈ 77 µM) | – | 98 (≈ 457 µM) | Neg | – | 43 (≈ 201 µM) | –
CCCCCCCCC1(C)SC(=O)C=C1O (stereo not drawn) | – | – | – | – | 47 (≈ 194 µM) | Neg | Neg | 12.6 ± 4.4 (≈ 52 µM) | – | 16.9 (≈ 69.7 µM) | Neg | 278 (≈ 1150 µM) | 3.3 (≈ 13.6 µM) | Neg
CCCCCCCCC1(C)SC(=O)C(C)=C1O (stereo not drawn) | – | – | – | 45 ± 2 (≈ 175 µM) | 23.5 ± 0.4 (≈ 91.6 µM) | Neg | Neg | 16.5 ± 5.7 (≈ 64.3 µM) | – | 44 (≈ 172 µM) | Neg | 290 (≈ 1130 µM) | 105 (≈ 409 µM) | –
CCCCCCC1(C)SC(=O)C=C1OC (stereo not drawn) | – | – | – | 45 (≈ 197 µM) | 48 (≈ 210 µM) | Neg | Neg | 14 ± 2.8 (≈ 61.3 µM) | – | 43 (≈ 188 µM) | Neg | 264 (≈ 1160 µM) | 126 (≈ 552 µM) | –
CCCCCCCCC1(C)SC(=O)C(C)=C1OC (stereo not drawn) | Neg | – | – | 132 (≈ 488 µM) | 108 (≈ 399 µM) | Neg | Neg | 63.8 (≈ 236 µM) | – | 208 (≈ 769 µM) | Neg | – | 94 (≈ 348 µM) | –
C=CCC1=C(OC)C(C)(CCCCCCCC)SC1=O (stereo not drawn) | Neg | Neg | – | – | 98 (≈ 331 µM) | Neg | Neg | 23.1 ± 17.4 (≈ 77.9 µM) | – | – | Neg | – | 169 (≈ 570 µM) | Neg
CCCCCCCC[C@@]1(C)SC(=O)C=C1OCC(=O)O | Neg | – | – | 98 (≈ 326 µM) | 60 (≈ 200 µM) | Neg | Neg | 13.8 ± 1.1 (≈ 45.9 µM) | – | 77 (≈ 256 µM) | Neg | – | 164 (≈ 546 µM) | –

The next lines start with results.

Ecoli/Tsoy(MIC) ([1]; Trypticase Soy Broth) | EF/MH(MIC) ([2]; Mueller Hinton Broth) | EF/Tsoy(MIC) ([2]; Trypticase Soy Broth) | MIC [3, 6] [µg/mL] | MIC [3, 7] [µg/mL] | PSAE/MH(MIC) [4] | PSAE/Tsoy(MIC) [4] | IC50 [5] [µg/mL] | MIC [1, 8] [µg/mL] | MIC [2, 9] [µg/mL] | Compound | Ecoli/MH(MIC) ([1]; Mueller Hinton Broth) | MIC [1, 10] [µg/mL] | MIC [2, 11] [µg/mL] | SA/MH(MIC) ([3]; Mueller Hinton Broth)
Neg | Neg | Neg | 52 (≈ 247 µM) | 87 (≈ 414 µM) | Neg | Neg | 17.3 (≈ 82.3 µM) | – | – | C/C=C/C(C)=C/C1(C)SC(=O)C=C1O (stereo not drawn) | Neg | – | – | –
Neg | – | Neg | 202 (≈ 961 µM) | 85 (≈ 404 µM) | Neg | Neg | 16.9 (≈ 80.4 µM) | 225 (≈ 1070 µM) | 186 (≈ 884 µM) | CC/C=C/C=C/C1(C)SC(=O)C=C1O (stereo not drawn) | – | – | – | –
– | – | – | 235 (≈ 1200 µM) | 102 (≈ 520 µM) | – | – | – | 290 (≈ 1480 µM) | 220 (≈ 1120 µM) | C=C/C(C)=C/C1(C)SC(=O)C=C1O (stereo not drawn) | – | – | – | –
Neg | – | Neg | 252 (≈ 983 µM) | 67 (≈ 261 µM) | Neg | Neg | 11 (≈ 42.9 µM) | – | 72 (≈ 281 µM) | CCCCCCCCC1(C)SC(=O)C=C1OC (stereo not drawn) | Neg | – | – | –
– | – | – | 45 (≈ 143 µM) | 83 (≈ 264 µM) | – | – | 14.5 ± 6.9 (≈ 46.1 µM) | – | 86 (≈ 273 µM) | CCCCCCCCC1(C)SC(=O)C=C1OC(=O)OCC (stereo not drawn) | – | – | 62 (≈ 197 µM) | –
